In PubChem BioAssay (NCI):
Several values for one entry are separate records, joined by “and”; a condition that tells them apart may be missing. Equal entries are not always repeated.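 Briefly, cells in 96-well plates were exposed to five compound concentrations for 48 h, and endpoints were estimated by linear interpolation. GI50: concentration for 50% inhibition of growth. Definition used: TGI = concentration required for complete inhibition of growth.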

What was measured:
Assay in all cases: NCI anticancer screen, dose series, 48 h
XF 498 CNS = tested on: XF 498 CNS
DMS 273 small cell lung = tested on: DMS 273 small cell lung
UO-31 renal = tested on: UO-31 renal
A549 NSCLC = tested on: A549 NSCLC
HCT-116 colon = tested on: HCT-116 colon
HCC-2998 colon = tested on: HCC-2998 colon
SR leukemia = tested on: SR leukemia
OVCAR-8 ovarian = tested on: OVCAR-8 ovarian
IGROV1 ovarian = tested on: IGROV1 ovarian
OVCAR-4 ovarian = tested on: OVCAR-4 ovarian
RPMI-8226 leukemia = tested on: RPMI-8226 leukemia
NCI-H460 lung = tested on: NCI-H460 lung
ACHN renal = tested on: ACHN renal
HCT-15 colon = tested on: HCT-15 colon
HOP-62 NSCLC = tested on: HOP-62 NSCLC
SN12C renal = tested on: SN12C renal
SF-268 CNS = tested on: SF-268 CNS
NCI-H23 lung = tested on: NCI-H23 lung
K-562 leukemia = tested on: K-562 leukemia
RXF 393 renal = tested on: RXF 393 renal
SW-620 colon = tested on: SW-620 colon
SNB-75 CNS = tested on: SNB-75 CNS
SK-OV-3 ovarian = tested on: SK-OV-3 ovarian
LOX IMVI melanoma = tested on: LOX IMVI melanoma
SNB-19 CNS = tested on: SNB-19 CNS
HOP-18 NSCLC = tested on: HOP-18 NSCLC
UACC-62 melanoma = tested on: UACC-62 melanoma
SF-539 CNS = tested on: SF-539 CNS
SF-295 CNS = tested on: SF-295 CNS
SK-MEL-5 melanoma = tested on: SK-MEL-5 melanoma
CAKI-1 renal = tested on: CAKI-1 renal
HOP-92 NSCLC = tested on: HOP-92 NSCLC
M19-MEL melanoma = tested on: M19-MEL melanoma
KM12 colon = tested on: KM12 colon
M14 melanoma = tested on: M14 melanoma
NCI-H522 lung = tested on: NCI-H522 lung
SK-MEL-28 melanoma = tested on: SK-MEL-28 melanoma
LXFL 529 NSCLC = tested on: LXFL 529 NSCLC
U251 CNS = tested on: U251 CNS
MOLT-4 leukemia = tested on: MOLT-4 leukemia
786-0 renal = tested on: 786-0 renal
MALME-3M melanoma = tested on: MALME-3M melanoma
HT29 colon = tested on: HT29 colon
CCRF-CEM leukemia = tested on: CCRF-CEM leukemia
DMS 114 small cell lung = tested on: DMS 114 small cell lung
SK-MEL-2 melanoma = tested on: SK-MEL-2 melanoma
COLO 205 colon = tested on: COLO 205 colon
KM20L2 colon = tested on: KM20L2 colon
TK-10 renal = tested on: TK-10 renal
DLD-1 colon = tested on: DLD-1 colon
OVCAR-3 ovarian = tested on: OVCAR-3 ovarian
EKVX NSCLC = tested on: EKVX NSCLC
NCI-H226 lung = tested on: NCI-H226 lung

In the case of `COc1cc(C2c3cc4c(cc3[C@@H](NCCCN3CCCC3=O)C3COC(=O)[C@H]23)OCO4)cc(OC)c1O` (some centres undefined), the TGI (XF 498 CNS) is reported as over 100 µM, the GI50 (DMS 273 small cell lung) is reported as 3.59 µM and 0.476 µM and the TGI (DMS 273 small cell lung) is reported as 21.3 µM and > 17.5 µM. The TGI (UO-31 renal) was 43.7 µM and > 17.5 µM, the GI50 (A549 NSCLC) was 6.23 µM and 1.01 µM and the TGI (A549 NSCLC) was 40 µM and > 17.5 µM. The TGI (HCT-116 colon) was over 100 µM, the TGI (HCC-2998 colon) was 85.7 µM and the TGI (SR leukemia) was over 100 µM. It also gave a TGI (OVCAR-8 ovarian) of over 100 µM, a TGI (IGROV1 ovarian) of over 100 µM and a GI50 (OVCAR-4 ovarian) of over 100 µM. The TGI (OVCAR-4 ovarian) was over 100 µM, the TGI (RPMI-8226 leukemia) was over 100 µM and the GI50 (NCI-H460 lung) was 1.54 µM and 0.58 µM. The TGI (NCI-H460 lung) was 15.7 µM and > 17.5 µM, the TGI (ACHN renal) was 16.5 µM and the TGI (HCT-15 colon) was over 100 µM. For the same compound, the GI50 (HOP-62 NSCLC) was 5.45 µM and 0.712 µM, the TGI (HOP-62 NSCLC) was 34.3 µM and > 17.5 µM and the TGI (SN12C renal) was 80.9 µM and > 17.5 µM. For the same compound, the GI50 (SF-268 CNS) was 9.24 µM and 1.58 µM, the TGI (SF-268 CNS) was over 100 µM and the GI50 (NCI-H23 lung) was 5.27 µM. It also gave a TGI (NCI-H23 lung) of 32.2 µM, a TGI (K-562 leukemia) of over 100 µM and a TGI (RXF 393 renal) of over 100 µM. The TGI (SW-620 colon) was over 100 µM, the TGI (SNB-75 CNS) was 6.81 µM and the TGI (SK-OV-3 ovarian) was 39.4 µM. The GI50 (LOX IMVI melanoma) was 8.13 µM and 0.813 µM, the TGI (LOX IMVI melanoma) was 33.7 µM and > 17.5 µM and the GI50 (SNB-19 CNS) was 38 µM and > 17.5 µM. For the same compound, the TGI (SNB-19 CNS) was over 100 µM, the TGI (HOP-18 NSCLC) was over 100 µM and the GI50 (UACC-62 melanoma) was 4.03 µM and 0.677 µM. The TGI (UACC-62 melanoma) was 26 µM and > 17.5 µM, the GI50 (SF-539 CNS) was 3.65 µM and the TGI (SF-539 CNS) was 21.4 µM. For the same compound, the TGI (SF-295 CNS) was over 100 µM, the GI50 (SK-MEL-5 melanoma) was 4.21 µM and 0.526 µM and the TGI (SK-MEL-5 melanoma) was 33.5 µM and > 17.5 µM. For the same compound, the TGI (CAKI-1 renal) was over 100 µM, the TGI (HOP-92 NSCLC) was 71.1 µM and > 17.5 µM and the TGI (M19-MEL melanoma) was over 100 µM. For the same compound, the TGI (KM12 colon) was over 100 µM, the TGI (M14 melanoma) was over 100 µM and the GI50 (NCI-H522 lung) was 5.65 µM. For the same compound, the TGI (NCI-H522 lung) was 84.3 µM, the TGI (SK-MEL-28 melanoma) was over 100 µM and the TGI (LXFL 529 NSCLC) was over 100 µM. The TGI (U251 CNS) was 63 µM and > 17.5 µM, the TGI (MOLT-4 leukemia) was over 100 µM and the TGI (786-0 renal) was 60.4 µM and > 17.5 µM. For the same compound, the GI50 (MALME-3M melanoma) was 11 µM, the TGI (MALME-3M melanoma) was over 100 µM and the TGI (HT29 colon) was over 100 µM. The TGI (CCRF-CEM leukemia) was over 100 µM, the GI50 (DMS 114 small cell lung) was 2.89 µM and 0.701 µM and the TGI (DMS 114 small cell lung) was 9.46 µM and > 17.5 µM. It also gave a TGI (SK-MEL-2 melanoma) of over 100 µM, a TGI (COLO 205 colon) of over 100 µM and a TGI (KM20L2 colon) of over 100 µM. For the same compound, the TGI (TK-10 renal) was over 100 µM, the TGI (DLD-1 colon) was over 100 µM and the TGI (OVCAR-3 ovarian) was over 100 µM. The TGI (EKVX NSCLC) was over 100 µM, the GI50 (NCI-H226 lung) was 3.38 µM and 1.35 µM and the TGI (NCI-H226 lung) was 23 µM and 9.53 µM.
